Calls of active or inactive are those of the source. No cut-off for these calls is given here.

Assay [1] concerns the target Lysine-specific histone demethylase 1A (Homo sapiens, UniProt O60341).
Description: Inhibition of recombinant human LSD1 expressed in Escherichia coli BL21(DE3) using H3K4me2 as substrate by fluorescence assay
The target in assay [2] is T1, Amine oxidase [flavin-containing] B (Homo sapiens, UniProt P27338).
T1 sequence (P27338 whole entry): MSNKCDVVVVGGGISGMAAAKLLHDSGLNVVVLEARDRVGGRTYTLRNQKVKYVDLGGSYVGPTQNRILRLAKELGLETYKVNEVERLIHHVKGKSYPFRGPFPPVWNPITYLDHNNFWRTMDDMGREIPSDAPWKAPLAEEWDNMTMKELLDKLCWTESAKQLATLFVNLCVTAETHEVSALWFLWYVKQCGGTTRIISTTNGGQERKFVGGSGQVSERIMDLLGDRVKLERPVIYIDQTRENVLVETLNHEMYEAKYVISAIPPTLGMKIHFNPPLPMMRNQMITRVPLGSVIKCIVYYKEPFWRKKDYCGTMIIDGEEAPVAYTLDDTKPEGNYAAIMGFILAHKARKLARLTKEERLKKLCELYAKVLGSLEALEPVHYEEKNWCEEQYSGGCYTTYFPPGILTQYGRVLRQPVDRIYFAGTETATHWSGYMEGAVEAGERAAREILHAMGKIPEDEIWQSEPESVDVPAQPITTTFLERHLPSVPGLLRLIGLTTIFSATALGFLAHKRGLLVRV
Description: Inhibition of MAO-B (unknown origin)

For assay [3], the system named is MGC-803. As to the kind of experiment: Effect on total H3 protein expression in human MGC803 cells at 0.1 to 0.5 uM after 48 hrs by Western blot analysis. Format: functional, cell-based. On the technique in general: A western blot detects proteins with antibodies after separation by electrophoresis.
In assay [4] the target is T2, Amine oxidase [flavin-containing] A (Homo sapiens, UniProt P21397).
T2 sequence (P21397 whole entry): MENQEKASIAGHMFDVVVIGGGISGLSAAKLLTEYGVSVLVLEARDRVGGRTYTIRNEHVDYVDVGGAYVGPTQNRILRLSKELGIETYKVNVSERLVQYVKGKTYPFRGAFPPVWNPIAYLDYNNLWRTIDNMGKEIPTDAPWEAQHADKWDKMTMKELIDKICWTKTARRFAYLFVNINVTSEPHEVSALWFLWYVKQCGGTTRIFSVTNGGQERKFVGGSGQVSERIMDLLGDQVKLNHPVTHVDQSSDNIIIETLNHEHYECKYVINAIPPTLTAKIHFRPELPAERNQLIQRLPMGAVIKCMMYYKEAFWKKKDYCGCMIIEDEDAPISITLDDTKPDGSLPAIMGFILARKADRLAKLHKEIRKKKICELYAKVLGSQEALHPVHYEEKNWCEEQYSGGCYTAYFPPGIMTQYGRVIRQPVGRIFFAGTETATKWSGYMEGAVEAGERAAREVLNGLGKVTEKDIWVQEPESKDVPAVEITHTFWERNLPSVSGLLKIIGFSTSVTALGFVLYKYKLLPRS
Description: Inhibition of MAO-A (unknown origin)

The term IC50 denotes the concentration that gives 50% inhibition. As to `CC(C)(C)OC(=O)N1CCN(C(=S)SCc2cn(Cc3cc4ccccc4oc3=O)nn2)CC1`, the half-maximal inhibitory concentration (IC50) in assay [1] was greater than 125 µM.
For the compound `Cc1ccc2oc(=O)cc(Cn3cc(CSC(=S)N4CCN(C(=O)OC(C)(C)C)CC4)nn3)c2c1`, the half-inhibitory concentration (IC50) in assay [1] is greater than 125 µM.
Still for that read-out and setting: as for `CC(C)(C)OC(=O)N1CCN(C(=S)SCc2cn(Cc3cc4ccc(O)cc4oc3=O)nn2)CC1`, the figure is 103 µM.
On the same count and under the same terms, as for `CC(C)(C)OC(=O)N1CCN(C(=S)SCc2cn(Cc3cc(=O)oc4ccc(Cl)cc34)nn2)CC1`, the figure is greater than 125 µM; as for `Cc1cc(O)cc2oc(=O)cc(Cn3cc(CSC(=S)N4CCN(C(=O)OC(C)(C)C)CC4)nn3)c12`, greater than 125 µM.
Regarding `CC(C)(C)OC(=O)N1CCN(C(=S)SCc2cn(Cc3cc(=O)oc4cc(O)ccc34)nn2)CC1`, the half-maximal inhibitory concentration (IC50) in assay [2] and in assay [4] was greater than 1.25 mM each time. Moreover, in assay [3], the result was inactive.
